Test results taken from patent publication US20100035755A1, “METHOD OF CONTROLLING WEEDS IN A TURF GRASS BY USING SULFONYLUREA COMPOUNDS” (Moghu Research Center Ltd., priority 2008, published 2010).

Legend:
[1] = tested on: Bentgrass; assay: Turf grass selectivity, greenhouse pot test; format: in vivo, Agrostris palustris
From the text: (§1) Turf mats of Zoysia grass, bentgrass, Kentucky bluegrass, or perennial rye grass known as cool season turfgrass or western grass were purchased and cut into a piece having 10 cm×20 cm size. Then, each piece was transplanted in a rectangular plastic pot (surface area of 300 cm^2) in which sandy loam and mixed top soil (Boo-Nong Top Soil No. 3, for horticultural use) are filled in 1:1 ratio. After the transplantation, the grasses were cut once a week to maintain the blade height at 0.5-1.0 cm and cultivated for one month in a green house of which temperature was kept at 25˜30° C. for daytime and 15˜25° C. for nighttime, respectively. Then, the ‘test chemical’ of the above Examples 1 and 2 or ‘control chemical’ was applied thereto in an amount of 400, 200, 100, 50, 25, 12, 6, 3 g ai/ha. As a “control chemical”, pyrazolsulfuron ethyl wettable agent (manufactured by Dongbu Fine Chemicals; herein after, referred to as ‘control chemical No. 1’) and flazasulfuron (manufactured by Dongbu HiTek; herein after, referred to as ‘control chemical No. 2’), both sulfonylurea herbicides for a turf grass, were used. Application was carried out by using a track sprayer (R&D Sprayer, USA) equipped with Teejet 8002 nozzle (Spraying Systems Co., USA), and the application amount was adjusted to 2,000 L/ha, which is a typical application amount for a golf course in Korea. Application solution was prepared by diluting the “test chemical” or the “control chemical” with tap water. […] The test was repeated three times in a random arrangement and the results are given in average value of each test (see Table 2 below).

[2] = tested on: Zoysia japonica; assay: Turf grass selectivity, greenhouse pot test; format: in vivo; conditions: for phytotoxicity (visual assessment 0-10): Zoysia japonica
From the text: as §1

[3] = tested on: Perennial rye grass; assay: Turf grass selectivity, greenhouse pot test; format: in vivo
From the text: as §1

[4] = tested on: Kentucky bluegrass; assay: Turf grass selectivity, greenhouse pot test; format: in vivo, Poa pratensis
From the text: as §1

[5] = tested on: Trifolium repens; assay: Weed spectrum, greenhouse pot test; format: in vivo; conditions: two weeks after application
From the text: (§2) To a rectangular plastic pot (surface area of 300 cm^2) in which sandy loam and mixed top soil (Boo-Nong Top Soil No. 3, for horticultural use) are filled in 1:1 ratio, eight different kinds of weed seeds including Poa annua and Digitaria sanguinalis as poaceae weed, Cyperus amuricus as cyperaceae weeds and Trifolium repens, Kummerowia striata, fleabane, Veronica officinalis and Portulaca oleracea as broadleaf weeds were sewn (50 to 100 seeds per each weed). These weeds are representative examples of the weeds which typically thrive in a turf grass field.
(§3) The pot was kept in a greenhouse which was maintained at 25˜30° C. for daytime and 15˜25° C. for nighttime, respectively, and irrigation was carried out regularly. Fourteen days after seeding, when the turf grass and the weeds reached approximately at three-leaf stage, the weed seeds were again sewn in separate two pots or “Test chemical” and “Control chemical” were applied in the same manner as the method described above. In this regard, when plants were cultivated for two weeks and then the chemical application was carried out, it is designated as “post-emergence” treatment. On the other than, when the seeding was carried right before the chemical application, it is designated as “pre-emergence” treatment. Preparation of a chemical solution, application method, etc. are the same as above described for evaluation of turf grass selectivity. Two weeks after the chemical application, efficacy of the chemicals for each type of the weeds was evaluated (visual evaluation) based on 0 to 100 scale (i.e., 0 indicates no efficacy and 100 indicates complete weed control).

[6] = tested on: Veronica officinalis; assay: Weed spectrum, greenhouse pot test; format: in vivo; conditions: two weeks after application
From the text: as §2, §3

[7] = tested on: Dandelion; assay: Weed spectrum, greenhouse pot test; format: in vivo; conditions: two weeks after application

COc1cc(OC)nc(NC(=O)NS(=O)(=O)c2ncccc2C(F)(F)F)n1 [Control chemical No. 2, Flazasulfuron, reference compound]
30: efficacy (0-100 scale) ([6]; Post-emergence, 50 g ai/ha) | efficacy (0-100 scale) ([6]; Pre-emergence, 25 g ai/ha) | efficacy (0-100 scale) ([7]; Post-emergence, 25 g ai/ha) | efficacy (0-100 scale) ([7]; Pre-emergence, 12 g ai/ha)
100: efficacy (0-100 scale) ([5]; Post-emergence, 25 g ai/ha) | efficacy (0-100 scale) ([5]; Post-emergence, 50 g ai/ha) | efficacy (0-100 scale) ([5]; Post-emergence, 100 g ai/ha) | efficacy (0-100 scale) ([5]; Pre-emergence, 50 g ai/ha) | efficacy (0-100 scale) ([5]; Pre-emergence, 100 g ai/ha)
40: efficacy (0-100 scale) ([6]; Post-emergence, 100 g ai/ha) | efficacy (0-100 scale) ([7]; Post-emergence, 50 g ai/ha) | efficacy (0-100 scale) ([7]; Pre-emergence, 25 g ai/ha)
safe: safety to Zoysia japonica ([2]; 50 g ai/ha or less)
50: efficacy (0-100 scale) ([6]; Pre-emergence, 50 g ai/ha) | efficacy (0-100 scale) ([7]; Post-emergence, 100 g ai/ha) | efficacy (0-100 scale) ([7]; Pre-emergence, 50 g ai/ha)
20: efficacy (0-100 scale) ([6]; Post-emergence, 25 g ai/ha) | efficacy (0-100 scale) ([6]; Pre-emergence, 12 g ai/ha)
1: phytotoxicity (visual assessment 0-10) ([2]; 50 g ai/ha, 2 weeks) | phytotoxicity (visual assessment 0-10) ([2]; 50 g ai/ha, 4 weeks)
60: efficacy (0-100 scale) ([6]; Pre-emergence, 100 g ai/ha)
80: efficacy (0-100 scale) ([5]; Post-emergence, 12 g ai/ha) | efficacy (0-100 scale) ([5]; Pre-emergence, 25 g ai/ha)
3: phytotoxicity (visual assessment 0-10) ([2]; 200 g ai/ha, 4 weeks)
0: phytotoxicity (visual assessment 0-10) ([2]; 3 g ai/ha, 2 weeks) | phytotoxicity (visual assessment 0-10) ([2]; 3 g ai/ha, 4 weeks) | phytotoxicity (visual assessment 0-10) ([2]; 6 g ai/ha, 2 weeks) | phytotoxicity (visual assessment 0-10) ([2]; 6 g ai/ha, 4 weeks) | phytotoxicity (visual assessment 0-10) ([2]; 12 g ai/ha, 2 weeks) | phytotoxicity (visual assessment 0-10) ([2]; 12 g ai/ha, 4 weeks) | phytotoxicity (visual assessment 0-10) ([2]; 25 g ai/ha, 2 weeks) | phytotoxicity (visual assessment 0-10) ([2]; 25 g ai/ha, 4 weeks)
2: phytotoxicity (visual assessment 0-10) ([2]; 100 g ai/ha, 2 weeks) | phytotoxicity (visual assessment 0-10) ([2]; 100 g ai/ha, 4 weeks)
10: phytotoxicity (visual assessment 0-10) ([1]; 3 g ai/ha, 2 weeks) | phytotoxicity (visual assessment 0-10) ([1]; 3 g ai/ha, 4 weeks) | phytotoxicity (visual assessment 0-10) ([1]; 6 g ai/ha, 2 weeks) | phytotoxicity (visual assessment 0-10) ([1]; 6 g ai/ha, 4 weeks) | phytotoxicity (visual assessment 0-10) ([1]; 12 g ai/ha, 2 weeks) | phytotoxicity (visual assessment 0-10) ([1]; 12 g ai/ha, 4 weeks) | phytotoxicity (visual assessment 0-10) ([1]; 25 g ai/ha, 2 weeks) | phytotoxicity (visual assessment 0-10) ([1]; 25 g ai/ha, 4 weeks) | phytotoxicity (visual assessment 0-10) ([1]; 50 g ai/ha, 2 weeks) | phytotoxicity (visual assessment 0-10) ([1]; 50 g ai/ha, 4 weeks) | phytotoxicity (visual assessment 0-10) ([1]; 100 g ai/ha, 2 weeks) | phytotoxicity (visual assessment 0-10) ([1]; 100 g ai/ha, 4 weeks) | phytotoxicity (visual assessment 0-10) ([1]; 200 g ai/ha, 2 weeks) | phytotoxicity (visual assessment 0-10) ([1]; 200 g ai/ha, 4 weeks) | phytotoxicity (visual assessment 0-10) ([1]; 400 g ai/ha, 2 weeks) | phytotoxicity (visual assessment 0-10) ([1]; 400 g ai/ha, 4 weeks) | phytotoxicity (visual assessment 0-10) ([3]; 3 g ai/ha, 2 weeks) | phytotoxicity (visual assessment 0-10) ([3]; 3 g ai/ha, 4 weeks) | phytotoxicity (visual assessment 0-10) ([3]; 6 g ai/ha, 2 weeks) | phytotoxicity (visual assessment 0-10) ([3]; 6 g ai/ha, 4 weeks) | phytotoxicity (visual assessment 0-10) ([3]; 12 g ai/ha, 2 weeks) | phytotoxicity (visual assessment 0-10) ([3]; 12 g ai/ha, 4 weeks) | phytotoxicity (visual assessment 0-10) ([3]; 25 g ai/ha, 2 weeks) | phytotoxicity (visual assessment 0-10) ([3]; 25 g ai/ha, 4 weeks) | phytotoxicity (visual assessment 0-10) ([3]; 50 g ai/ha, 2 weeks) | phytotoxicity (visual assessment 0-10) ([3]; 50 g ai/ha, 4 weeks) | phytotoxicity (visual assessment 0-10) ([3]; 100 g ai/ha, 2 weeks) | phytotoxicity (visual assessment 0-10) ([3]; 100 g ai/ha, 4 weeks) | phytotoxicity (visual assessment 0-10) ([3]; 200 g ai/ha, 2 weeks) | phytotoxicity (visual assessment 0-10) ([3]; 200 g ai/ha, 4 weeks) | phytotoxicity (visual assessment 0-10) ([3]; 400 g ai/ha, 2 weeks) | phytotoxicity (visual assessment 0-10) ([3]; 400 g ai/ha, 4 weeks) | phytotoxicity (visual assessment 0-10) ([4]; 3 g ai/ha, 2 weeks) | phytotoxicity (visual assessment 0-10) ([4]; 3 g ai/ha, 4 weeks) | phytotoxicity (visual assessment 0-10) ([4]; 6 g ai/ha, 2 weeks) | phytotoxicity (visual assessment 0-10) ([4]; 6 g ai/ha, 4 weeks) | phytotoxicity (visual assessment 0-10) ([4]; 12 g ai/ha, 2 weeks) | phytotoxicity (visual assessment 0-10) ([4]; 12 g ai/ha, 4 weeks) | phytotoxicity (visual assessment 0-10) ([4]; 25 g ai/ha, 2 weeks) | phytotoxicity (visual assessment 0-10) ([4]; 25 g ai/ha, 4 weeks) | phytotoxicity (visual assessment 0-10) ([4]; 50 g ai/ha, 2 weeks) | phytotoxicity (visual assessment 0-10) ([4]; 50 g ai/ha, 4 weeks) | phytotoxicity (visual assessment 0-10) ([4]; 100 g ai/ha, 2 weeks) | phytotoxicity (visual assessment 0-10) ([4]; 100 g ai/ha, 4 weeks) | phytotoxicity (visual assessment 0-10) ([4]; 200 g ai/ha, 2 weeks) | phytotoxicity (visual assessment 0-10) ([4]; 200 g ai/ha, 4 weeks) | phytotoxicity (visual assessment 0-10) ([4]; 400 g ai/ha, 2 weeks) | phytotoxicity (visual assessment 0-10) ([4]; 400 g ai/ha, 4 weeks) | efficacy (0-100 scale) ([6]; Post-emergence, 12 g ai/ha) | efficacy (0-100 scale) ([7]; Post-emergence, 12 g ai/ha)
4: phytotoxicity (visual assessment 0-10) ([2]; 200 g ai/ha, 2 weeks)
6: phytotoxicity (visual assessment 0-10) ([2]; 400 g ai/ha, 4 weeks)
7: phytotoxicity (visual assessment 0-10) ([2]; 400 g ai/ha, 2 weeks)
70: efficacy (0-100 scale) ([5]; Pre-emergence, 12 g ai/ha) | efficacy (0-100 scale) ([7]; Pre-emergence, 100 g ai/ha)
